Data taken from paper PMC11125359 (Pharmaceuticals, 2024).

system: α-amylase; assay: α-Amylase inhibition (anti-diabetic); assay type: biochemical; details: equal concentrations (1000 µg/mL); mean ± SE

SMILES | Inhibition (%) α-Amylase [%]
COc1ccc(Nc2n[nH]c(N=Cc3ccc(N4CCCCC4)cc3)c2C(=O)Nc2ccc(Cl)cc2)cc1 [5f] | 31.77 ± 0.05

system: α-glucosidase; assay: α-Glucosidase inhibition (anti-diabetic); assay type: biochemical; details: equal concentrations (1000 µg/mL); mean ± SE

SMILES | Inhibition (%) α-Glucosidase [%]
COc1ccc(Nc2n[nH]c(N=Cc3ccc(N4CCCCC4)cc3)c2C(=O)Nc2ccc(Cl)cc2)cc1 [5f] | 27.33 ± 0.05

target: acetylcholinesterase (AChE) (Homo sapiens, UniProt P22303); assay: biochemical; details: same concentration (1000 µg/mL); mean ± SE
Sequence (P22303 32-614, species assumed): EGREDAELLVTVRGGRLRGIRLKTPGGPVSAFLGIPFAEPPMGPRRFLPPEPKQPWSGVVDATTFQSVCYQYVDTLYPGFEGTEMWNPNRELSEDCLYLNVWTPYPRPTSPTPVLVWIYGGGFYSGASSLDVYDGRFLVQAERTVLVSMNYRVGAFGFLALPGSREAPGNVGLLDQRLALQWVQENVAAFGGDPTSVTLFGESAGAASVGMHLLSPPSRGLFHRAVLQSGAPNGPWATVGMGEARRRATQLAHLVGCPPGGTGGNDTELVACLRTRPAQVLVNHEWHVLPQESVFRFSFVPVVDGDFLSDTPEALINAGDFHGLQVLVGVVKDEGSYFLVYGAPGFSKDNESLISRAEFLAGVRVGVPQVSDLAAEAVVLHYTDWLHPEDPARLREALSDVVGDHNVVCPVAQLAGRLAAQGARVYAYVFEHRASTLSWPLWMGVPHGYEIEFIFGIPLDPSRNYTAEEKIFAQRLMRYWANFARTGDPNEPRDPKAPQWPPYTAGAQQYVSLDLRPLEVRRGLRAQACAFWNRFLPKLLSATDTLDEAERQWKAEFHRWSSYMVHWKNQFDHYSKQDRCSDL

SMILES | inhibition at 1000 µg/mL [%]
COc1ccc(Nc2n[nH]c(N=Cc3ccc(N4CCCCC4)cc3)c2C(=O)Nc2ccc(Cl)cc2)cc1 [5f] | 42.76 ± 0.03

target: bovine serum albumin (BSA) (Bos taurus, UniProt P02769); assay: not given; details: equal concentrations (1000 µg/mL); mean ± SE
Sequence (P02769 25-607): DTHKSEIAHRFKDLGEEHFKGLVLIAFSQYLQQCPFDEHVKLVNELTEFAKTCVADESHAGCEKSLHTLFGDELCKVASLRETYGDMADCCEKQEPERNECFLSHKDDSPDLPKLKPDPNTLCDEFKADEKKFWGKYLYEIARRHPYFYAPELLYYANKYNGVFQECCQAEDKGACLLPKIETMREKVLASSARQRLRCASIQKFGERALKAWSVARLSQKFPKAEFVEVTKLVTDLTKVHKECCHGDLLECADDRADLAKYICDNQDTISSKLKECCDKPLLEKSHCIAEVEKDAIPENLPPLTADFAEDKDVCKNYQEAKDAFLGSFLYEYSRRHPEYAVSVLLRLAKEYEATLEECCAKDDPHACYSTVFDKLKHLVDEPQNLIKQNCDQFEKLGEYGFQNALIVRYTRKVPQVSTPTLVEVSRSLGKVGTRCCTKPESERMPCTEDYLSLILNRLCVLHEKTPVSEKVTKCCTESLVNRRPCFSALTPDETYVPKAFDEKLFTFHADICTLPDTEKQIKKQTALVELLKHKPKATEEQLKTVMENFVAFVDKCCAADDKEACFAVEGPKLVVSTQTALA

SMILES | Inhibition (%) Protein Denaturation [%]
COc1ccc(Nc2n[nH]c(N=Cc3ccc(N4CCCCC4)cc3)c2C(=O)Nc2ccc(Cl)cc2)cc1 [5f] | 27.28 ± 0.03

system: proteinase enzyme (trypsin); assay: Proteinase enzyme inhibition (anti-inflammatory); assay type: biochemical; details: equal concentrations (1000 µg/mL); mean ± SE

SMILES | Inhibition (%) Proteinase [%]
COc1ccc(Nc2n[nH]c(N=Cc3ccc(N4CCCCC4)cc3)c2C(=O)Nc2ccc(Cl)cc2)cc1 [5f] | 23.72 ± 0.03

system: human colon cancer (Caco-2) cell line; assay: cells; assay type: cell-based; details: Conc.: 5a 13.45, 5d 12.64, 5e 12.29, 5f 11.81, 7a 12.72, 7f 11.24, DOX 11.50

SMILES | Viability %, Caco-2, 1st concentration [%]
COc1ccc(Nc2n[nH]c(N=Cc3ccc(N4CCCCC4)cc3)c2C(=O)Nc2ccc(Cl)cc2)cc1 [5f] | 89.43

same assay, conditions: Conc.: 5a 26.91, 5d 25.27, 5e 24.58, 5f 23.63, 7a 25.43, 7f 22.48, DOX 23.00

SMILES | Viability %, Caco-2, 2nd concentration [%]
COc1ccc(Nc2n[nH]c(N=Cc3ccc(N4CCCCC4)cc3)c2C(=O)Nc2ccc(Cl)cc2)cc1 [5f] | 80.91

same assay, conditions: Conc.: 5a 53.81, 5d 50.55, 5e 49.15, 5f 47.26, 7a 50.86, 7f 44.96, DOX 46.00

SMILES | Viability %, Caco-2, 3rd concentration [%]
COc1ccc(Nc2n[nH]c(N=Cc3ccc(N4CCCCC4)cc3)c2C(=O)Nc2ccc(Cl)cc2)cc1 [5f] | 61.88

same assay, conditions: Conc.: 5a 107.63, 5d 101.09, 5e 98.31, 5f 94.51, 7a 101.72, 7f 89.93, DOX 91.99

SMILES | Viability %, Caco-2, 4th concentration [%]
COc1ccc(Nc2n[nH]c(N=Cc3ccc(N4CCCCC4)cc3)c2C(=O)Nc2ccc(Cl)cc2)cc1 [5f] | 39.72

same assay, conditions: Conc.: 5a 215.26, 5d 202.19, 5e 196.61, 5f 189.03, 7a 203.44, 7f 179.85, DOX 183.99

SMILES | Viability %, Caco-2, 5th concentration [%]
COc1ccc(Nc2n[nH]c(N=Cc3ccc(N4CCCCC4)cc3)c2C(=O)Nc2ccc(Cl)cc2)cc1 [5f] | 32.34

same assay, conditions: Homo sapiens, Caco-2; 48 h, MTT; mean ± SE; read-out: Cytotoxic activity IC50, Colon (Caco-2)

SMILES | IC50 [µM]
COc1ccc(Nc2n[nH]c(N=Cc3ccc(N4CCCCC4)cc3)c2C(=O)Nc2ccc(Cl)cc2)cc1 [5f] | 61.98 ± 0.12

same assay, conditions: IC50 on normal cells (WI-38)/IC50 on Caco-2

SMILES | Therapeutic Index (TI), Colon (Caco-2)
COc1ccc(Nc2n[nH]c(N=Cc3ccc(N4CCCCC4)cc3)c2C(=O)Nc2ccc(Cl)cc2)cc1 [5f] | 7.95

system: not listed separately; assay: Cytotoxic activity, MTT assay, normal lung (WI-38); assay type: cell-based; details: human, WI-38 normal lung cells, Conc. as printed: 5a 53.81, 5d 50.55, 5e 49.15, 5f 47.26, 7a 50.86, 7f 44.96, DOX 46.00; read-out: Viability %, WI-38, 3rd concentration

SMILES | viability at 48 h [%]
COc1ccc(Nc2n[nH]c(N=Cc3ccc(N4CCCCC4)cc3)c2C(=O)Nc2ccc(Cl)cc2)cc1 [5f] | 76

same assay, conditions: human, WI-38 normal lung cells, Conc. as printed: 5a 107.63, 5d 101.09, 5e 98.31, 5f 94.51, 7a 101.72, 7f 89.93, DOX 91.99; read-out: Viability %, WI-38, 4th concentration

SMILES | viability at 48 h [%]
COc1ccc(Nc2n[nH]c(N=Cc3ccc(N4CCCCC4)cc3)c2C(=O)Nc2ccc(Cl)cc2)cc1 [5f] | 60.7

same assay, conditions: human, WI-38 normal lung cells, Conc.: 5a 13.45, 5d 12.64, 5e 12.29, 5f 11.81, 7a 12.72, 7f 11.24, DOX 11.50; read-out: Viability %, WI-38, 1st concentration

SMILES | viability at 48 h [%]
COc1ccc(Nc2n[nH]c(N=Cc3ccc(N4CCCCC4)cc3)c2C(=O)Nc2ccc(Cl)cc2)cc1 [5f] | 87.9

same assay, conditions: human, WI-38 normal lung cells, Conc.: 5a 26.91, 5d 25.27, 5e 24.58, 5f 23.63, 7a 25.43, 7f 22.48, DOX 23.00; read-out: Viability %, WI-38, 2nd concentration

SMILES | viability at 48 h [%]
COc1ccc(Nc2n[nH]c(N=Cc3ccc(N4CCCCC4)cc3)c2C(=O)Nc2ccc(Cl)cc2)cc1 [5f] | 82

same assay, conditions: human, WI-38 normal lung cells, Conc.: 5a 215.26, 5d 202.19, 5e 196.61, 5f 189.03, 7a 203.44, 7f 179.85, DOX 183.99; read-out: Viability %, WI-38, 5th concentration

SMILES | viability at 48 h [%]
COc1ccc(Nc2n[nH]c(N=Cc3ccc(N4CCCCC4)cc3)c2C(=O)Nc2ccc(Cl)cc2)cc1 [5f] | 44.8

same assay, conditions: human, WI-38 normal lung cells; 48 h, MTT; mean ± SE; read-out: Cytotoxic activity IC50, Normal Lung (WI-38)

SMILES | IC50 at 48 h [µM]
COc1ccc(Nc2n[nH]c(N=Cc3ccc(N4CCCCC4)cc3)c2C(=O)Nc2ccc(Cl)cc2)cc1 [5f] | 493 ± 9.88

system: caspase-3; assay: Caspase-3 ELISA in treated A549 cells; assay type: cell-based, human; details: DMSO control 85.92 ± 0.12

SMILES | Caspase-3 level, Lung (A549) [pg/mL]
COc1ccc(Nc2n[nH]c(N=Cc3ccc(N4CCCCC4)cc3)c2C(=O)Nc2ccc(Cl)cc2)cc1 [5f] | 236.29 ± 0.33

system: Bcl-2; assay: Bcl-2 ELISA in treated A549 cells; assay type: cell-based, human; details: DMSO control 9.83 ± 0.05

SMILES | Bcl-2 level, Lung (A549) [ng/mL]
COc1ccc(Nc2n[nH]c(N=Cc3ccc(N4CCCCC4)cc3)c2C(=O)Nc2ccc(Cl)cc2)cc1 [5f] | 3.57 ± 0.02

system: caspase-3; assay: Caspase-3 ELISA in treated Caco-2 cells; assay type: cell-based, human; details: DMSO control 97.06 ± 0.14

SMILES | Caspase-3 level, Colon (Caco-2) [pg/mL]
COc1ccc(Nc2n[nH]c(N=Cc3ccc(N4CCCCC4)cc3)c2C(=O)Nc2ccc(Cl)cc2)cc1 [5f] | 266.92 ± 0.39

system: Bcl-2; assay: Bcl-2 ELISA in treated Caco-2 cells; assay type: cell-based, human; details: DMSO control 7.99 ± 0.08

SMILES | Bcl-2 level, Colon (Caco-2) [ng/mL]
COc1ccc(Nc2n[nH]c(N=Cc3ccc(N4CCCCC4)cc3)c2C(=O)Nc2ccc(Cl)cc2)cc1 [5f] | 2.91 ± 0.03

system: not listed separately; assay: Iron-reducing power (IRP); details: equal concentrations (1000 µg/mL); mean ± SE, three replicates
Procedure: (§1) All in vitro biological activities were assessed in the tested compounds at equal concentrations (1000 µg/mL). All assays were carried out in triplicate.
In vitro biological activities
(§2) The total antioxidant capacity (TAC) was determined by analyzing the green phosphate/Mo5+ complex at a wavelength (λ) of 695 nm, following the procedure described by Prieto
(§3) et al. Samples (at each concentration) were mixed with a reagent solution containing 0.3 N sulfuric
(§4) acid, 28 mM sodium phosphate, and 4 mM ammonium molybdate. Methanol (80%) was used in place
(§5) of the sample for the blank. The tubes were sealed and incubated in a boiling water bath for 90
(§6) minutes. After cooling to room temperature, the absorbance was measured at 695 nm against the
(§7) blank. Ascorbic acid was used at the same concentrations as a standard. The antioxidant capacity was
(§8) expressed as mg gallic acid equivalent per gram weight.
(§9) The iron reducing power was determined as µg/mL using the method proposed by Oyaizu
(§10) In brief, 1ml of the tested sample (at each concentration) was combined with 1mL of 200mM
(§11) sodium phosphate buffer (pH 6.6) and 1mL of 1% potassium ferricyanide. The mixture was then
(§12) incubated at 50°C for 20 minutes, followed by the addition of 1mL of trichloroacetic acid (10%). After
(§13) centrifugation at 2000rpm for 10 minutes, the upper layer solution (2.5 mL) was mixed with 2.5 mL of double deionized water and 1mL of fresh ferric chloride (0.1%). The absorbance was measured at
(§14) 700nm against a blank prepared without the sample. Ascorbic acid was used at the same
(§15) concentrations as a standard. A high absorbance at 700nm indicates a higher reducing power in the
(§16) The 1,1-Diphenyl-2-picryl-hydrazyl (DPPH) radical scavenging activities were evaluated using the method described by Rahman et al. An antioxidant substance capable of donating a
(§17) hydrogen atom to a solution containing DPPH- can reduce the stable free radical, causing the solution
(§18) to change color from violet to pale yellow. The remaining DPPH- radical was quantified by
(§19) nm using a spectroscopic method. Two milliliters of a DPPH solution (100 µM) in ethanol were mixed
(§20) with 2 mL of the sample (at each concentration). The reaction mixture for each concentration was
(§21) thoroughly vortexed and then incubated in the dark at room temperature for 30 minutes. The
(§22) absorbance was then measured spectrophotometrically at 518 nm against a blank (ethanol). For the
(§23) control, 2 mL of ethanol was added instead of the sample and run simultaneously with the test.
(§24) Ascorbic acid was used at the same concentrations as a positive control. Percent inhibition of the
(§25) DPPH free radical was calculated. The median inhibitory concentration (IC 50) for each tested
(§26) The procedure for the 2,2'-azinobis-(3-ethylbenzothiazoline-6-sulfonic acid) (ABTS) assay
(§27) potassium persulfate solution (2.4 mM). The working solution was prepared by mixing the two stock
(§28) solutions in equal quantities and allowing them to react at room temperature in a dark place for 14
(§29) hours. The solution was then diluted by mixing 1 mL of ABTS solution with 60 mL of methanol to
(§30) was prepared for each assay. The tested samples (at each concentration) were allowed to react with 1
(§31) mL of the ABTS solution, and the absorbance was taken at 734 nm after 7 minutes using a
(§32) spectrophotometer. The ABTS scavenging capacities of the samples were compared with that of
(§33) ascorbic acid (at the same concentrations).

SMILES | Iron-Reducing Power (IRP) [µg/mL]
COc1ccc(Nc2n[nH]c(N=Cc3ccc(N4CCCCC4)cc3)c2C(=O)Nc2ccc(Cl)cc2)cc1 [5f] | 34.85 ± 0.07

system: not listed separately; assay: ABTS radical scavenging assay; details: equal concentrations (1000 µg/mL); mean ± SE
Procedure: as §1
In vitro biological activities
as §2, §3, §4, §5, §6, §7, §8, §9, §10, §11, §12, §13, §14, §15, §16, §17, §18, §19, §20, §21, §22, §23, §24, §25, §26, §27, §28, §29, §30, §31, §32, §33

SMILES | ABTS (%) inhibition [%]
COc1ccc(Nc2n[nH]c(N=Cc3ccc(N4CCCCC4)cc3)c2C(=O)Nc2ccc(Cl)cc2)cc1 [5f] | 76.74 ± 0.05

system: not listed separately; assay: DPPH radical-scavenging activity; details: read-out: DPPH (IC50); mean ± SE, three replicates

SMILES | IC50 [µM]
COc1ccc(Nc2n[nH]c(N=Cc3ccc(N4CCCCC4)cc3)c2C(=O)Nc2ccc(Cl)cc2)cc1 [5f] | 22.83 ± 0.01

system: human lung cancer (A549) cell line; assay: Cytotoxic activity, MTT assay, lung (A549); details: Conc.: 5a 13.45, 5d 12.64, 5e 12.29, 5f 11.81, 7a 12.72, 7f 11.24, DOX 11.50
Procedure: It will be assayed against human lung cancer (A549) and colon (Caco-2) cell line in
comparison with normal lung (WI-38) cell line using 3-(4,5-dimethythiazol-2-yl)-2,5-diphenyl
tetrazolium bromide (MTT) assay by determining the optical density (OD) at 570 nm according to the
The cells were dispensed in a 96-well sterile microplate (3
µL of each compound or doxorubicin (positive control, in DMSO) for 48 h in a serum free medium
prior to the MTT assay. Subsequently, the media were carefully removed, and 40 µL of MTT (2.5
mg/mL) was added to each well and then incubated for an additional 4 h. Purple formazan dye
crystals were solubilized by the addition of 200 µL of DMSO. The absorbance was measured at 570 nm using a SpectraMax Paradigm Multi-Mode microplate reader. The relative cell viability was
experiments were conducted in triplicate. Percent of the cell-growth inhibition (%) and the IC 50 was
calculated using IC 50 calculation software. The concentrations used for calculating the IC 50 depend on

SMILES | Viability %, A549, 1st concentration [%]
COc1ccc(Nc2n[nH]c(N=Cc3ccc(N4CCCCC4)cc3)c2C(=O)Nc2ccc(Cl)cc2)cc1 [5f] | 97.46

same assay, conditions: Conc.: 5a 26.91, 5d 25.27, 5e 24.58, 5f 23.63, 7a 25.43, 7f 22.48, DOX 23.00

SMILES | Viability %, A549, 2nd concentration [%]
COc1ccc(Nc2n[nH]c(N=Cc3ccc(N4CCCCC4)cc3)c2C(=O)Nc2ccc(Cl)cc2)cc1 [5f] | 87.31

same assay, conditions: Conc.: 5a 53.81, 5d 50.55, 5e 49.15, 5f 47.26, 7a 50.86, 7f 44.96, DOX 46.00

SMILES | Viability %, A549, 3rd concentration [%]
COc1ccc(Nc2n[nH]c(N=Cc3ccc(N4CCCCC4)cc3)c2C(=O)Nc2ccc(Cl)cc2)cc1 [5f] | 60.91

same assay, conditions: Conc.: 5a 107.63, 5d 101.09, 5e 98.31, 5f 94.51, 7a 101.72, 7f 89.93, DOX 91.99

SMILES | Viability %, A549, 4th concentration [%]
COc1ccc(Nc2n[nH]c(N=Cc3ccc(N4CCCCC4)cc3)c2C(=O)Nc2ccc(Cl)cc2)cc1 [5f] | 46.48

same assay, conditions: Conc.: 5a 215.26, 5d 202.19, 5e 196.61, 5f 189.03, 7a 203.44, 7f 179.85, DOX 183.99

SMILES | Viability %, A549, 5th concentration [%]
COc1ccc(Nc2n[nH]c(N=Cc3ccc(N4CCCCC4)cc3)c2C(=O)Nc2ccc(Cl)cc2)cc1 [5f] | 20.20

same assay, conditions: Homo sapiens, A549, 48 h, read-out: Cytotoxic activity IC50, Lung (A549)

SMILES | IC50 [µM]
COc1ccc(Nc2n[nH]c(N=Cc3ccc(N4CCCCC4)cc3)c2C(=O)Nc2ccc(Cl)cc2)cc1 [5f] | 60.45 ± 0.12

system: not listed separately; assay: Total antioxidant capacity (TAC), phosphomolybdenum method; details: equal concentrations (1000 µg/mL); mean ± SE, three replicates

SMILES | Total Antioxidant Capacity (TAC) [mg Gallic Acid/g]
COc1ccc(Nc2n[nH]c(N=Cc3ccc(N4CCCCC4)cc3)c2C(=O)Nc2ccc(Cl)cc2)cc1 [5f] | 53.14 ± 0.20
